Here are results for 9 compounds from PubChem BioAssay (NCI).

Assay in all cases: DTP human tumour cell line panel, 48 h
Experiment [1] relates to CCRF-CEM leukemia.
For experiment [2], the system named is COLO 205 colon.
Experiment [3] has as its system EKVX NSCLC.
Experiment [4] deals with K-562 leukemia.
Experiment [5] deals with OVCAR-4 ovarian.
Experiment [6] relates to RPMI-8226 leukemia.
Experiment [7] deals with SF-295 CNS.
The test system of experiment [8] is SK-MEL-5 melanoma.
For experiment [9], the system named is SNB-19 CNS.
The test system of experiment [10] is UACC-257 melanoma.

Several values for one entry are separate records, joined by “and”; a condition that tells them apart may be missing. Equal values may be shown once.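 All cell lines were grown in 96-well plates and treated with compound for 48 hours. GI50 is the concentration that inhibits growth by half. TGI: total growth inhibition.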

For the compound `c1ccc2c(c1)[nH]c1c2nc2ccccn21`, the GI50 (commonly the concentration that inhibits growth by half) in experiment [1] was 48.4 µM and > 100 µM. The concentration for total growth inhibition (TGI) in [1], in [2], in [3], in experiment [4], in experiment [5] and in [6] was above 100 µM each time. In addition, the total growth inhibition concentration (TGI) in experiment [7], in experiment [8], in experiment [9] and in experiment [10] was above 100 µM throughout.
On to `Cc1ccc(/C(=N/Nc2ccc([N+](=O)[O-])cc2)Sc2cc(Cl)c(C)cc2S(N)(=O)=O)cc1`, for which the GI50 in experiment [1] is 2.11 µM; in experiment [2], 2.98 µM; in experiment [3], 3.14 µM; in experiment [4], 3.11 µM; in experiment [5], 1.28 µM; in experiment [6], 1.82 µM. Also, the GI50 in experiment [7] is 1.75 µM; in experiment [8], 1.78 µM; in experiment [9] it was 2.5 µM; in [10] it was 6.45 µM. Besides, the TGI (commonly the concentration at which net growth stops) in [1] was 4.58 µM; in experiment [2] it was above 23.2 µM; in [3], 9.12 µM; in experiment [4], above 38.4 µM; in experiment [5], 3.75 µM; in experiment [6] it was 4.27 µM. Moreover, the TGI in [7] is 3.39 µM; in experiment [8] it was 5.56 µM; in [9], above 20.5 µM; in experiment [10], 18.8 µM.
Take `Cn1c(=O)oc2cc(C3CCC(=O)N3Cc3csc(-c4ccccc4)n3)ccc21` (stereo unspecified): the concentration for total growth inhibition (TGI) in experiment [1], in experiment [2], in experiment [3], in experiment [4], in experiment [5] and in [6] was above 100 µM in each case. Besides, the TGI in [7], in experiment [8], in experiment [9] and in experiment [10] was above 100 µM throughout.
Take `O=C(Nc1n[nH]c2cc(-c3cc(F)ccc3F)ccc12)C1CC1`: the GI50 in [1] was 10.5 µM; in experiment [2], 13.1 µM; in experiment [3], above 22.3 µM; in [4] it was 7.47 µM; in experiment [5], 13.2 µM; in experiment [6] it was 13.1 µM. Also, the GI50 in experiment [7] was 16.9 µM; in experiment [8] it was 8.09 µM; in [9], above 25 µM; in [10], above 25 µM. The TGI in experiment [1], in [2], in [3], in experiment [4], in experiment [5] and in [6] was above 25 µM each time. The total growth inhibition concentration (TGI) in experiment [7], in [8], in experiment [9] and in [10] was above 25 µM each time.
For `Cc1cc2c(c(C(=O)O)c1C)-c1cccc(Cl)c1C2=O`, the TGI in experiment [1], in [2], in experiment [3], in [4], in experiment [5] and in [6] was above 100 µM in each case. For the same compound, the TGI in experiment [7], in experiment [8], in [9] and in experiment [10] was above 100 µM throughout.
`O=C1c2cccc3cccc(c23)C(=O)N1CCCCCN1CCN(CCN=c2cc3n(-c4ccc(Cl)cc4)c4ccccc4nc-3cc2Nc2ccc(Cl)cc2)CC1`: the GI50 in [1] was 7.38 µM; in experiment [2] it was 2.38 µM; in experiment [3], 14.5 µM; in [4], 6.92 µM; in experiment [5], 6.22 µM; in [6], 5.22 µM. Moreover, the GI50 was 13 µM in experiment [7], 7.46 µM in experiment [8], 23 µM in [9] and 13.7 µM in experiment [10]. The TGI is 25.2 µM in experiment [1]; above 50 µM in experiment [2]; above 50 µM in experiment [3]; 33.3 µM in [4]; 17.3 µM in experiment [5]; 16.9 µM in experiment [6]. The TGI in experiment [7] is above 50 µM; in experiment [8], 18.1 µM; in experiment [9] it was above 50 µM; in [10], 31.1 µM.
As to `COc1cc(/C=N/NC(=O)c2cnn3c2NC(c2ccccc2)C3)ccc1OC1CCCC1` (stereo unspecified), the GI50 in experiment [1] is 0.691 µM; in experiment [2] it was 0.59 µM; in experiment [3], 1.51 µM; in [4] it was 0.348 µM; in experiment [5] it was 2.01 µM; in [6], 0.527 µM. The concentration for 50% growth inhibition (GI50) is 0.367 µM in [7], 0.59 µM in experiment [8], 0.923 µM in [9] and 1.45 µM in experiment [10]. The TGI in [1] was 10.8 µM; in experiment [2], 7.53 µM; in experiment [3] it was 14 µM; in [4], above 30.4 µM; in [5] it was 7.75 µM; in [6] it was 4.91 µM. Further, the TGI in experiment [7] was found to be 1.66 µM; in experiment [8] it was 4.77 µM; in [9], 10.9 µM; in experiment [10] it was 12 µM.
Consider `C=C1C(=O)O[C@@H]2/C=C(/C)[C@@H](OC(C)=O)C/C=C(\C)C(O)[C@@H](OC(=O)/C(C)=C\C)C12` (stereo partly specified), for which the TGI is 57.2 µM in experiment [1]; 32 µM in experiment [2]; above 100 µM in experiment [3]; 73.3 µM in [4]; above 100 µM in experiment [5]; 60.7 µM in experiment [6]. Further, the TGI in experiment [7] is above 100 µM; in experiment [8], 32.1 µM; in [9], above 100 µM; in [10] it was above 100 µM.
In the case of `CCCCCCCC/C=C/CCCCCCCC1=NC(C)(C)CN1C(C)(C)CO`, the GI50 in [1] was 3.04 µM; in [2], 1.88 µM; in [3] it was 1.53 µM; in [4], 2.12 µM; in experiment [5] it was 2.12 µM; in [6], 2.55 µM. Further, the GI50 is 1.81 µM in experiment [7], 1.75 µM in experiment [8], 2.39 µM in experiment [9] and 1.76 µM in experiment [10]. Further, the TGI in experiment [1] amounted to 11.4 µM; in [2], 3.42 µM; in experiment [3], 4.36 µM; in experiment [4], 5.48 µM; in [5], 4.4 µM; in experiment [6], 5.68 µM. Also, the concentration for total growth inhibition (TGI) in [7] is 3.52 µM; in experiment [8], 3.13 µM; in experiment [9], 6.55 µM; in experiment [10] it was 3.54 µM.
